Patent US20260042743A1, “SUBSTITUTED BENZIMIDAZOLES FOR TREATING VIRAL DISEASES” (COUNCIL OF SCIENTIFIC AND INDUSTRIAL RESEARCH, priority 2022, published 2026)

Test system: SARS-CoV-2
Test: cell-based anti-viral assay using Vero E6 cell line, viral RNA by qRT-PCR
Details: Vero E6 cells, 48 h; for ΔCt (1 μM) / inhibition at 1 µM: 1 μM compound; for ΔCt (1 μM) / ΔCt (5 μM): increase in Ct vs no-drug control; for ΔCt (5 μM) / inhibition at 5 µM: 5 μM compound; for inhibition at 1 µM / inhibition at 5 µM: Severe acute respiratory syndrome coronavirus 2, Vero C1008, calculated from ΔCt; for inhibition at 1 µM: read-out: % SARS-CoV-2 Inactivation (1 μM); for inhibition at 5 µM: read-out: % SARS-CoV-2 Inactivation (5 μM)

## FC(F)(F)c1cc(Nc2nc3c(C(F)(F)F)cc(C(F)(F)F)cc3[nH]2)cc(C(F)(F)F)c1 [Example 1, N-(3,5-bis(trifluoromethyl)phenyl)-4,6-bis(trifluoromethyl)-1H-benzo[d]imidazol-2-amine]
  ΔCt (1 μM): 5.7
  ΔCt (5 μM): 12
  inhibition at 1 µM: > 95%
  inhibition at 5 µM: > 99.9%

## FC(F)(F)c1cc(C(F)(F)F)c2nc(Nc3ccc(Cl)cc3)[nH]c2c1 [Example 2, N-(4-chlorophenyl)-4,6-bis(trifluoromethyl)-1H-benzo[d]imidazol-2-amine]
  ΔCt (1 μM): 4.4
  ΔCt (5 μM): 6
  inhibition at 1 µM: > 90%
  inhibition at 5 µM: > 95%

## FC(F)(F)c1cc(C(F)(F)F)c2nc(Nc3ccccc3)[nH]c2c1 [Example 3, N-phenyl-4,6-bis(trifluoromethyl)-1H-benzo[d]imidazol-2-amine]
  ΔCt (1 μM): 1.8
  ΔCt (5 μM): 3.3
  inhibition at 1 µM: < 3%
  inhibition at 5 µM: 90%

## COc1ccc(Nc2nc3c(C(F)(F)F)cc(C(F)(F)F)cc3[nH]2)cc1Br [Example 4, N-(3-bromo-4-methoxyphenyl)-4,6-bis(trifluoromethyl)-1H-benzo[d]imidazol-2-amine]
  ΔCt (1 μM): 2.7
  ΔCt (5 μM): 6
  inhibition at 1 µM: < 3%
  inhibition at 5 µM: > 95%

## FC(F)(F)c1cc(C(F)(F)F)c2nc(Nc3cccnc3)[nH]c2c1 [Example 5, N-(pyridin-3-yl)-4,6-bis(trifluoromethyl)-1H-benzo[d]imidazol-2-amine]
  ΔCt (1 μM): 1
  ΔCt (5 μM): 1.2
  inhibition at 1 µM: < 3%
  inhibition at 5 µM: < 3%

## FC(F)(F)c1cc(C(F)(F)F)c2nc(NCc3ccccc3)[nH]c2c1 [Example 6, N-benzyl-4,6-bis(trifluoromethyl)-1H-benzo[d]imidazol-2-amine]
  ΔCt (1 μM): 2
  ΔCt (5 μM): 1.6
  inhibition at 1 µM: < 3%
  inhibition at 5 µM: < 3%

## FC(F)(F)c1cc(C(F)(F)F)c2nc(NC3CCOCC3)[nH]c2c1 [Example 7, N-(tetrahydro-2H-pyran-4-yl)-4,6-bis(trifluoromethyl)-1H-benzo[d]imidazol-2-amine]
  ΔCt (1 μM): 0.9
  ΔCt (5 μM): −0.32
  inhibition at 1 µM: < 3%
  inhibition at 5 µM: < 3%

## Fc1cc2nc(Nc3ccccc3)[nH]c2cc1F [Example 8, 5,6-difluoro-N-phenyl-1H-benzo[d]imidazol-2-amine]
  ΔCt (1 μM): 3.1
  ΔCt (5 μM): 4.2
  inhibition at 1 µM: 90%
  inhibition at 5 µM: > 90%

## COc1ccc(Nc2nc3cc(F)c(F)cc3[nH]2)cc1Br [Example 9, N-(3-bromo-4-methoxyphenyl)-5,6-difluoro-1H-benzo[d]imidazol-2-amine]
  ΔCt (1 μM): −1.1
  ΔCt (5 μM): 1
  inhibition at 1 µM: < 3%
  inhibition at 5 µM: < 3%

## Fc1cc2nc(Nc3cccc(C(F)(F)F)c3)[nH]c2cc1F [Example 10, 5,6-difluoro-N-(3-(trifluoromethyl)phenyl)-1H-benzo[d]imidazol-2-amine]
  ΔCt (1 μM): 2.4
  ΔCt (5 μM): 2.4
  inhibition at 1 µM: < 3%
  inhibition at 5 µM: < 3%

## Fc1cc2nc(Nc3cc(C(F)(F)F)cc(C(F)(F)F)c3)[nH]c2cc1F [Example 11, N-(3,5-bis(trifluoromethyl)phenyl)-5,6-difluoro-1H-benzo[d]imidazol-2-amine]
  ΔCt (1 μM): 5.8
  ΔCt (5 μM): 10.3
  inhibition at 1 µM: > 95%
  inhibition at 5 µM: 99.9%

## Fc1cc2nc(Nc3ccc(C(F)(F)F)cc3)[nH]c2cc1F [Example 12, 5,6-difluoro-N-(4-(trifluoromethyl)phenyl)-1H-benzo[d]imidazol-2-amine]
  ΔCt (1 μM): 2.4
  ΔCt (5 μM): 3.5
  inhibition at 1 µM: < 3%
  inhibition at 5 µM: 90%

## Fc1cc2nc(NCc3ccccc3)[nH]c2cc1F [Example 13, N-benzyl-5,6-difluoro-1H-benzo[d]imidazol-2-amine]
  ΔCt (1 μM): 1.3
  ΔCt (5 μM): 1
  inhibition at 1 µM: < 3%
  inhibition at 5 µM: < 3%

## FC(F)(F)c1cccc(Nc2nc3c(C(F)(F)F)cc(C(F)(F)F)cc3[nH]2)c1 [Example 14, 4,6-bis(trifluoromethyl)-N-(3-(trifluoromethyl)phenyl)-1H-benzo[d]imidazol-2-amine]
  ΔCt (1 μM): 7.4
  ΔCt (5 μM): 16
  inhibition at 1 µM: 99%
  inhibition at 5 µM: 100%

## CC(C)Nc1nc2c(C(F)(F)F)cc(C(F)(F)F)cc2[nH]1 [Example 15, N-isopropyl-4,6-bis(trifluoromethyl)-1H-benzo[d]imidazol-2-amine]
  ΔCt (1 μM): 3.1
  ΔCt (5 μM): 4.2
  inhibition at 1 µM: 90%
  inhibition at 5 µM: > 90%

## FC(F)(F)c1cc(C(F)(F)F)c2nc(N3CCCCC3)[nH]c2c1 [Example 16, 2-(piperidin-1-yl)-4,6-bis(trifluoromethyl)-1H-benzo[d]imidazole]
  ΔCt (1 μM): 0.8
  ΔCt (5 μM): 1
  inhibition at 1 µM: < 3%
  inhibition at 5 µM: < 3%

## FC(F)(F)c1cc(C(F)(F)F)c2nc(Nc3ccc4ccccc4c3)[nH]c2c1 [Example 17, N-(naphthalen-2-yl)-5,7-bis(trifluoromethyl)-1H-benzo[d]imidazol-2-amine]
  ΔCt (1 μM): 3
  ΔCt (5 μM): 1.5
  inhibition at 1 µM: 90%
  inhibition at 5 µM: < 3%

## CC(C)c1ccccc1Nc1nc2c(C(F)(F)F)cc(C(F)(F)F)cc2[nH]1 [Example 18, N-(2-isopropylphenyl)-4,6-bis(trifluoromethyl)-1H-benzo[d]imidazol-2-amine]
  ΔCt (1 μM): 1.4
  ΔCt (5 μM): 1.4
  inhibition at 1 µM: < 3%
  inhibition at 5 µM: < 3%

## C[C@@H](Nc1nc2c(C(F)(F)F)cc(C(F)(F)F)cc2[nH]1)c1cccc2ccccc12 [Example 19, (R)—N-(1-(naphthalen-1-yl)ethyl)-4,6-bis(trifluoromethyl)-1H-benzo[d]imidazol-2-amine]
  ΔCt (1 μM): 1.9
  ΔCt (5 μM): 1.9
  inhibition at 1 µM: < 3%
  inhibition at 5 µM: < 3%

## O=S1(=O)CCC(Nc2nc3c(C(F)(F)F)cc(C(F)(F)F)cc3[nH]2)C1 (stereo not drawn) [Example 20, 3-((4,6-bis(trifluoromethyl)-1H-benzo[d]imidazol-2-yl)amino)tetrahydrothiophene 1,1-dioxide]
  ΔCt (1 μM): 1.7
  ΔCt (5 μM): 3.7
  inhibition at 1 µM: < 3%
  inhibition at 5 µM: > 90%

## CC1(Nc2nc3c(C(F)(F)F)cc(C(F)(F)F)cc3[nH]2)CCC1 [Example 21, N-(1-methylcyclobutyl)-4,6-bis(trifluoromethyl)-1H-benzo[d]imidazol-2-amine]
  ΔCt (1 μM): 3.6
  ΔCt (5 μM): 9.3
  inhibition at 1 µM: > 90%
  inhibition at 5 µM: > 99%

## FC(F)(F)Oc1cccc(Nc2nc3c(C(F)(F)F)cc(C(F)(F)F)cc3[nH]2)c1 [Example 22, N-(3-(trifluoromethoxy)phenyl)-4,6-bis(trifluoromethyl)-1H-benzo[d]imidazol-2-amine]
  ΔCt (1 μM): 3.3
  ΔCt (5 μM): 7.4
  inhibition at 1 µM: 90%
  inhibition at 5 µM: 99%

## Fc1ccccc1Nc1nc2c(C(F)(F)F)cc(C(F)(F)F)cc2[nH]1 [Example 23, N-(2-fluorophenyl)-4,6-bis(trifluoromethyl)-1H-benzo[d]imidazol-2-amine]
  ΔCt (1 μM): −0.3
  ΔCt (5 μM): 5.2
  inhibition at 1 µM: < 3%
  inhibition at 5 µM: > 95%

## Fc1cccc(Nc2nc3c(C(F)(F)F)cc(C(F)(F)F)cc3[nH]2)c1 [Example 24, N-(3-fluorophenyl)-4,6-bis(trifluoromethyl)-1H-benzo[d]imidazol-2-amine]
  ΔCt (1 μM): 0.7
  ΔCt (5 μM): 4.3
  inhibition at 1 µM: < 3%
  inhibition at 5 µM: > 90%

## Fc1ccc(Nc2nc3c(C(F)(F)F)cc(C(F)(F)F)cc3[nH]2)cc1 [Example 25, N-(4-fluorophenyl)-4,6-bis(trifluoromethyl)-1H-benzo[d]imidazol-2-amine]
  ΔCt (1 μM): 2
  ΔCt (5 μM): 3.6
  inhibition at 1 µM: < 3%
  inhibition at 5 µM: 90%

## Fc1cc(F)cc(Nc2nc3c(C(F)(F)F)cc(C(F)(F)F)cc3[nH]2)c1 [Example 26, N-(3,5-difluorophenyl)-4,6-bis(trifluoromethyl)-1H-benzo[d]imidazol-2-amine]
  ΔCt (1 μM): 3.4
  ΔCt (5 μM): 9.4
  inhibition at 1 µM: 90%
  inhibition at 5 µM: > 99%

## FC(F)(F)c1ccc(Nc2nc3c(C(F)(F)F)cc(C(F)(F)F)cc3[nH]2)cc1 [Example 27, 4,6-bis(trifluoromethyl)-N-(4-(trifluoromethyl)phenyl)-1H-benzo[d]imidazol-2-amine]
  ΔCt (1 μM): 1.2
  ΔCt (5 μM): 8
  inhibition at 1 µM: < 3%
  inhibition at 5 µM: > 99%

## FC(F)(F)c1cc(C(F)(F)F)c2nc(Nc3ccccc3C(F)(F)F)[nH]c2c1 [Example 28, 4,6-bis(trifluoromethyl)-N-(2-(trifluoromethyl)phenyl)-1H-benzo[d]imidazol-2-amine]
  ΔCt (1 μM): −2
  ΔCt (5 μM): 2
  inhibition at 1 µM: < 3%
  inhibition at 5 µM: < 3%

## FC(F)(F)Oc1ccc2nc(Nc3cc(C(F)(F)F)cc(C(F)(F)F)c3)[nH]c2c1 [Example 29, N-(3,5-bis(trifluoromethyl)phenyl)-6-(trifluoromethoxy)-1H-benzo[d]imidazol-2-amine]
  ΔCt (1 μM): 4.7
  ΔCt (5 μM): 11.5
  inhibition at 1 µM: > 95%
  inhibition at 5 µM: 99.9%

## FC(F)(F)Oc1ccc2nc(Nc3cccc(C(F)(F)F)c3)[nH]c2c1 [Example 30, 6-(trifluoromethoxy)-N-(3-(trifluoromethyl)phenyl)-1H-benzo[d]imidazol-2-amine]
  ΔCt (1 μM): 1.1
  ΔCt (5 μM): 11.1
  inhibition at 1 µM: < 3%
  inhibition at 5 µM: 99.9%
